From patent publication US7902373B2 (Pfizer Inc, priority 2006, dated 2011)

The molecules below were run against human recombinant H-PGDS (Homo sapiens, UniProt O60760) (assay: Fluorescence intensity h-PGDS TBA enzyme assay). Conditions: Examples up to 622 (and 3a, 3b).
Format: biochemical

Sequence of human recombinant H-PGDS (O60760 whole entry): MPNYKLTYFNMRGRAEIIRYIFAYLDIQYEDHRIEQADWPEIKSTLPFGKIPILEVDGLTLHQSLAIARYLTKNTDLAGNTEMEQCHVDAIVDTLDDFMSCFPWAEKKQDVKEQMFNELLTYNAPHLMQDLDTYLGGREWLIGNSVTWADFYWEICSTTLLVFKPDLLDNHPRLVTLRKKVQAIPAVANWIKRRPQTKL

`O=C(NC1CCN(Cc2cccc(CF)n2)CC1)c1ccc(-c2cccc(F)c2)nc1` [Example 463, N-(1-{[6-(Fluoromethyl)pyridin-2-yl]methyl}piperidin-4-yl)-6-(3-fluorophenyl)nicotinamide] was tested. Which IC50 did it give?
Its IC50 is 0.385 nM.

With `CC(C)(O)c1cc(CN2CCC(NC(=O)c3ccc(-c4cccc(F)c4)nc3)CC2)ccn1` [Example 464, 6-(3-Fluorophenyl)-N-(1-{[2-(1-hydroxy-1-methylethyl)pyridin-4-yl]methyl}piperidin-4-yl)nicotinamide] as the molecule, how does the IC50 read?
The IC50 was 1.02 nM.

With `O=C(NC1CCN(Cc2ccc3c(n2)NCCC3)CC1)c1ccc(-c2cccc(F)c2)nc1` [Example 465, 6-(3-Fluorophenyl)-N-[1-(5,6,7,8-tetrahydro-18-naphthyridin-2-ylmethyl)piperidin-4-yl]nicotinamide] as the molecule, how does the IC50 read?
The IC50 was 0.881 nM.

Which IC50 does the source give for `CCOC(=O)Cn1cc(CN2CCC(NC(=O)c3ccc(-c4cccc(F)c4)nc3)CC2)cn1` [Example 466, Ethyl (4-{[4-({[6-(3-fluorophenyl)pyridin-3-yl]carbonyl}amino)piperidin-1-yl]methyl}-1H-pyrazol-1-yl)acetate] here?
The IC50 was 1.49 nM.

For `COc1cc(CN2CCC(NC(=O)c3ccc(-c4cccc(F)c4)nc3)CC2)c(F)cc1Cl` [Example 467, N-[1-(4-Chloro-2-fluoro-5-methoxybenzyl)piperidin-4-yl]-6-(3-fluorophenyl)nicotinamide], which IC50 is on record?
Its IC50 is 0.257 nM.

Which IC50 does the source give for `O=C(NC1CCN(Cc2ccc(=O)[nH]n2)CC1)c1ccc(-c2cccc(F)c2)nc1` [Example 469, 6-(3-Fluorophenyl)-N-{1-[(6-oxo-1,6-dihydropyridazin-3-yl)methyl]piperidin-4-yl}nicotinamide] here?
Its IC50 is 0.855 nM.

For `CC(C)c1nnc2ccc(CN3CCC(NC(=O)c4ccc(-c5cccc(F)c5)nc4)CC3)cn12` [Example 470, 6-(3-Fluorophenyl)-N-{1-[(3-isopropyl[1,2,4]triazolo[4,3-a]pyridin-6-yl)methyl]piperidin-4-yl}nicotinamide], which IC50 is on record?
Its IC50 is 4.14 nM.

With `COc1ccc2nccc(CN3CCC(NC(=O)c4ccc(-c5cccc(F)c5)nc4)CC3)c2c1` [Example 471, 6-(3-Fluorophenyl)-N-{1-[(6-methoxyquinolin-4-yl)methyl]piperidin-4-yl}nicotinamide] as the molecule, how does the IC50 read?
Its IC50 is 2.68 nM.

Which IC50 does the source give for `CC(C)(O)c1ccc(CN2CCC(NC(=O)c3ccc(-c4cccc(F)c4)nc3)CC2)cn1` [Example 472, 6-(3-Fluorophenyl)-N-(1-{[6-(1-hydroxy-1-methylethyl)pyridin-3-yl]methyl}piperidin-4-yl)nicotinamide] here?
Its IC50 is 0.491 nM.

How did the IC50 turn out when `Cn1ccc(-c2ccc(CN3CCC(NC(=O)c4ccc(-c5cccc(F)c5)nc4)CC3)cc2)n1` [Example 473, 6-(3-Fluorophenyl)-N-{1-[4-(1-methyl-1H-pyrazol-3-yl)benzyl]piperidin-4-yl}nicotinamide] was run?
Its IC50 is 2.36 nM.

With `Cn1nccc1-c1ccc(CN2CCC(NC(=O)c3ccc(-c4cccc(F)c4)nc3)CC2)cc1` [Example 474, 6-(3-Fluorophenyl)-N-{1-[4-(1-methyl-1H-pyrazol-5-yl)benzyl]piperidin-4-yl}nicotinamide] as the molecule, how does the IC50 read?
Its IC50 is 1.44 nM.

Which IC50 does the source give for `O=C(NC1CCN(Cc2ccc(Br)cn2)CC1)c1ccc(-c2cccc(F)c2)nc1` [Example 475, N-{1-[(5-Bromopyridin-2-yl)methyl]piperidin-4-yl}-6-(3-fluorophenyl)nicotinamide] here?
Its IC50 is 4.07 nM.

With `O=C(NC1CCN(Cc2ccc(CF)nc2)CC1)c1ccc(-c2cccc(F)c2)nc1` [Example 476, N-(1-{[6-(Fluoromethyl)pyridin-3-yl]methyl}piperidin-4-yl)-6-(3-fluorophenyl)nicotinamide] as the molecule, how does the IC50 read?
The IC50 was 0.935 nM.

With `Cc1ccc(-c2nc(CN3CCC(NC(=O)c4ccc(-c5cccc(F)c5)nc4)CC3)n(C)n2)nn1` [Example 477, 6-(3-Fluorophenyl)-N-(1-{[1-methyl-3-(6-methylpyridazin-3-yl)-1H-1,2,4-triazol-5-yl]methyl}piperidin-4-yl)nicotinamide] as the molecule, how does the IC50 read?
The IC50 was 4.04 nM.

For `Cn1nc(-c2ccccn2)nc1CN1CCC(NC(=O)c2ccc(-c3cccc(F)c3)nc2)CC1` [Example 478, 6-(3-Fluorophenyl)-N-{1-[(1-methyl-3-pyridin-2-yl-1H-1,2,4-triazol-5-yl)methyl]piperidin-4-yl}nicotinamide], which IC50 is on record?
Its IC50 is 2.01 nM.

With `Cc1nn(C)c(N2CCCOCC2)c1CN1CCC(NC(=O)c2ccc(-c3cccc(F)c3)nc2)CC1` [Example 479, N-(1-{[1,3-Dimethyl-5-(1,4-oxazepan-4-yl)-1H-pyrazol-4-yl]methyl}piperidin-4-yl)-6-(3-fluorophenyl)nicotinamide] as the molecule, how does the IC50 read?
The IC50 was 0.421 nM.

Which IC50 does the source give for `Cn1nccc1-c1nc(CN2CCC(NC(=O)c3ccc(-c4cccc(F)c4)nc3)CC2)nn1C` [Example 480, 6-(3-Fluorophenyl)-N-(1-{[1-methyl-5-(1-methyl-1H-pyrazol-5-yl)-1H-1,2,4-triazol-3-yl]methyl}piperidin-4-yl)nicotinamide] here?
Its IC50 is 2.69 nM.

With `Cn1nc(-c2ncccn2)nc1CN1CCC(NC(=O)c2ccc(-c3cccc(F)c3)nc2)CC1` [Example 481, 6-(3-Fluorophenyl)-N-{1-[(1-methyl-3-pyrimidin-2-yl-1H-1,2,4-triazol-5-yl)methyl]piperidin-4-yl}nicotinamide] as the molecule, how does the IC50 read?
The IC50 was 2.45 nM.

`Cn1nc(CN2CCC(NC(=O)c3ccc(-c4cccc(F)c4)nc3)CC2)nc1-c1ccccc1F` [Example 482, 6-(3-Fluorophenyl)-N-(1-{[5-(2-fluorophenyl)-1-methyl-1H-1,2,4-triazol-3-yl]methyl}piperidin-4-yl)nicotinamide] was tested. Which IC50 did it give?
Its IC50 is 2.39 nM.

How did the IC50 turn out when `Cn1nc(-c2cccc(F)c2)nc1CN1CCC(NC(=O)c2ccc(-c3cccc(F)c3)nc2)CC1` [Example 483, 6-(3-Fluorophenyl)-N-(1-{[3-(3-fluorophenyl)-1-methyl-1H-1,2,4-triazol-5-yl]methyl}piperidin-4-yl)nicotinamide] was run?
Its IC50 is 3.58 nM.

Which IC50 does the source give for `Cn1nc(CN2CCC(NC(=O)c3ccc(-c4cccc(F)c4)nc3)CC2)nc1-c1ccc(F)cc1` [Example 484, 6-(3-Fluorophenyl)-N-(1-{[5-(4-fluorophenyl)-1-methyl-1H-1,2,4-triazol-3-yl]methyl}piperidin-4-yl)nicotinamide] here?
The IC50 was 2.68 nM.

With `Cn1nc(CN2CCC(NC(=O)c3ccc(-c4cccc(F)c4)nc3)CC2)nc1-c1ccccn1` [Example 485, 6-(3-Fluorophenyl)-N-{1-[(1-methyl-5-pyridin-2-yl-1H-1,2,4-triazol-3-yl)methyl]piperidin-4-yl}nicotinamide] as the molecule, how does the IC50 read?
The IC50 was 2.77 nM.

How did the IC50 turn out when `O=C(NC1CCN(Cc2ccc(OC(F)F)c(OC3CC3)c2)CC1)c1ccc(-c2cccc(F)c2)nc1` [Example 486, N-{1-[3-(Cyclopropyloxy)-4-(difluoromethoxy)benzyl]piperidin-4-yl}-6-(3-fluorophenyl)nicotinamide] was run?
Its IC50 is 2.32 nM.

`COc1c(C)cnc(CN2CCC(NC(=O)c3ccc(-c4cccc(F)c4)nc3)CC2)c1C` [Example 487] was tested. Which IC50 did it give?
Its IC50 is 0.372 nM.

With `O=C(NC1CCN(Cc2ccc(-c3ccn[nH]3)cc2)CC1)c1ccc(-c2cccc(F)c2)nc1` [Example 488, 6-(3-Fluorophenyl)-N-{1-[4-(1H-pyrazol-5-yl)benzyl]piperidin-4-yl}nicotinamide] as the molecule, how does the IC50 read?
Its IC50 is 0.489 nM.

Which IC50 does the source give for `Nc1ncncc1CN1CCC(NC(=O)c2ccc(-c3cccc(F)c3)nc2)CC1` [Example 489, N-{1-[(4-Aminopyrimidin-5-yl)methyl]piperidin-4-yl}-6-(3-fluorophenyl)nicotinamide] here?
The IC50 was 1.18 nM.

Which IC50 does the source give for `O=C(NC1CCN(Cc2cccc3c2OCC3)CC1)c1ccc(-c2cccc(F)c2)nc1` [Example 490, N-[1-(2,3-Dihydro-1-benzofuran-7-ylmethyl)piperidin-4-yl]-6-(3-fluorophenyl)nicotinamide] here?
The IC50 was 0.601 nM.

For `COc1ccc2nccc(CN3CCC(NC(=O)c4ccc(-c5cccc(F)c5)nc4)CC3)c2n1` [Example 491, 6-(3-Fluorophenyl)-N-{1-[(6-methoxy-1,5-naphthyridin-4-yl)methyl]piperidin-4-yl}nicotinamide], which IC50 is on record?
Its IC50 is 2.4 nM.

How did the IC50 turn out when `O=C(NC1CCN(Cc2ccc(-n3ccnn3)cc2)CC1)c1ccc(-c2cccc(F)c2)nc1` [Example 492, 6-(3-Fluorophenyl)-N-{1-[4-(1H-1,2,3-triazol-1-yl)benzyl]piperidin-4-yl}nicotinamide] was run?
Its IC50 is 0.285 nM.

`O=C(NC1CCN(Cc2ccc(-n3nccn3)cc2)CC1)c1ccc(-c2cccc(F)c2)nc1` [Example 493, 6-(3-Fluorophenyl)-N-{1-[4-(2H-1,2,3-triazol-2-yl)benzyl]piperidin-4-yl}nicotinamide] was tested. Which IC50 did it give?
The IC50 was 1.1 nM.

With `COc1cc(CN2CCC(NC(=O)c3ccc(-c4cccc(F)c4)nc3)CC2)cc2c1OCCO2` [Example 494, 6-(3-Fluorophenyl)-N-{1-[(8-methoxy-2,3-dihydro-1,4-benzodioxin-6-yl)methyl]piperidin-4-yl}nicotinamide] as the molecule, how does the IC50 read?
Its IC50 is 0.817 nM.

`Cn1nncc1CN1CCC(NC(=O)c2ccc(-c3cccc(F)c3)nc2)CC1` [Example 495, 6-(3-Fluorophenyl)-N-{1-[(1-methyl-1H-1,2,3-triazol-5-yl)methyl]piperidin-4-yl}nicotinamide] was tested. Which IC50 did it give?
Its IC50 is 0.409 nM.

Which IC50 does the source give for `COc1cc(CN2CCC(NC(=O)c3ccc(-c4cccc(F)c4)nc3)CC2)ccc1C` [Example 496, 6-(3-Fluorophenyl)-N-[1-(3-methoxy-4-methylbenzyl)piperidin-4-yl]nicotinamide] here?
Its IC50 is 0.569 nM.

Which IC50 does the source give for `O=C1COc2ccc(CN3CCC(NC(=O)c4ccc(-c5cccc(F)c5)nc4)CC3)cc2N1` [Example 497, 6-(3-Fluorophenyl)-N-{1-[(3-oxo-3,4-dihydro-2H-14-benzoxazin-6-yl)methyl]piperidin-4-yl}nicotinamide] here?
The IC50 was 1.06 nM.

With `Cn1ncc(CN2CCC(NC(=O)c3ccc(-c4cccc(F)c4)nc3)CC2)c1-c1ccccc1` [Example 498, 6-(3-Fluorophenyl)-N-{1-[(1-methyl-5-phenyl-1H-pyrazol-4-yl)methyl]piperidin-4-yl}nicotinamide] as the molecule, how does the IC50 read?
The IC50 was 0.3 nM.

With `COc1ccc(-c2c(CN3CCC(NC(=O)c4ccc(-c5cccc(F)c5)nc4)CC3)cnn2C)cc1` [Example 499, 6-(3-Fluorophenyl)-N-(1-{[5-(4-methoxyphenyl)-1-methyl-1H-pyrazol-4-yl]methyl}piperidin-4-yl)nicotinamide] as the molecule, how does the IC50 read?
The IC50 was 1.64 nM.

With `Cn1ncc(CN2CCC(NC(=O)c3ccc(-c4cccc(F)c4)nc3)CC2)c1-c1ccc(F)cc1` [Example 500, 6-(3-Fluorophenyl)-N-(1-{[5-(4-fluorophenyl)-1-methyl-1H-pyrazol-4-yl]methyl}piperidin-4-yl)nicotinamide] as the molecule, how does the IC50 read?
The IC50 was 0.633 nM.
